Read-outs that look alike come from different tables or passages of the source.
Key:
full-length human PLD2 = full-length human PLD2 (Homo sapiens (Human), UniProt O14939); assay: Evaluation of human PLD2 enzyme inhibitory activity (Amplex Red / choline oxidase fluorescence); type: biochemical
How it was run: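 Enzyme was N-terminal FLAG-tagged full-length human PLD2 (1-933), expressed in Expi293F cells and anti-FLAG purified. Compound (5% DMSO final) was incubated with enzyme (6 nmol/L solution) and 1,2-diheptanoyl-PC (6 mmol/L solution) in HEPES pH 7.5, KCl, EGTA, MgCl2, NP-40, BSA buffer for 60 min at room temperature. Choline was detected with Amplex Red/choline oxidase/HRP.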

full-length human PLD1 = full-length human PLD1 (Homo sapiens (Human), UniProt Q13393); assay: Evaluation of human PLD1 enzyme inhibitory activity (Amplex Red / choline oxidase fluorescence); type: biochemical
How it was run: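 N-terminally FLAG-tagged full-length human PLD1 (1-1036), expressed in Expi293F and FLAG-purified, incubated with compound (5% DMSO final) and 1,2-diheptanoyl-sn-glycero-3-phosphocholine for 60 min at room temperature in HEPES pH 7.5 buffer. Released choline detected by Amplex Red/choline oxidase/HRP fluorescence.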

[1] = full-length human PLD2 enzyme, read-out: PLD2 IC50
[2] = full-length human PLD1 enzyme, read-out: PLD1 IC50
[3] = column 2 of continuation tables 2-12 to 2-14, read-out: human PLD2 enzyme inhibitory activity IC50
[4] = column 1 of continuation tables 2-12 to 2-14, read-out: human PLD1 enzyme inhibitory activity IC50

full-length human PLD2, sequence (O14939 whole entry): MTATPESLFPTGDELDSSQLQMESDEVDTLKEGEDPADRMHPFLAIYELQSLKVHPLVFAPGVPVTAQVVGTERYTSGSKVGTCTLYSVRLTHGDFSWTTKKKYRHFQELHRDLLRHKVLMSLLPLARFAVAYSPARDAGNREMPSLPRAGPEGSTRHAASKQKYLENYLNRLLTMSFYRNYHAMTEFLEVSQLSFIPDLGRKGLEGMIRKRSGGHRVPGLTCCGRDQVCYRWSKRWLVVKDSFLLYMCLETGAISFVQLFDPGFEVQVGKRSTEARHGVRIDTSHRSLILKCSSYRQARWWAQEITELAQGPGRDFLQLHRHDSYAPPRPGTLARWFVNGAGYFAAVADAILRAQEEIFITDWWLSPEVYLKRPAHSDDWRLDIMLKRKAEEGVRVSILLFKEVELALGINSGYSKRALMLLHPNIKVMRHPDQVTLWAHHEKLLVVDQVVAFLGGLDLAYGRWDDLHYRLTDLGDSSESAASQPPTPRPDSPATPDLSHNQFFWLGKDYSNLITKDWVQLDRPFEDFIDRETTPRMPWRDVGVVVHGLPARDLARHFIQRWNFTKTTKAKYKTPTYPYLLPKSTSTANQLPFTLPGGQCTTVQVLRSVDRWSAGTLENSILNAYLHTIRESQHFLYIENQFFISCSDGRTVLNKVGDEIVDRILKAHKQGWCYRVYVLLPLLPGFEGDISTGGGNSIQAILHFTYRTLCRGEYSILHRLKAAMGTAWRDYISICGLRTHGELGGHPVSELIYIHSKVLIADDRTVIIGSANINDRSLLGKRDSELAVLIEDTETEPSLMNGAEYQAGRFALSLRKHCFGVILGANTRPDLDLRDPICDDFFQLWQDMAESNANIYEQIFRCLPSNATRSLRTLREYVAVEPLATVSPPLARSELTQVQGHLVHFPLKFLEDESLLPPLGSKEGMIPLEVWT
full-length human PLD1, sequence (Q13393 other isoform, or with tags, fused parts or gaps): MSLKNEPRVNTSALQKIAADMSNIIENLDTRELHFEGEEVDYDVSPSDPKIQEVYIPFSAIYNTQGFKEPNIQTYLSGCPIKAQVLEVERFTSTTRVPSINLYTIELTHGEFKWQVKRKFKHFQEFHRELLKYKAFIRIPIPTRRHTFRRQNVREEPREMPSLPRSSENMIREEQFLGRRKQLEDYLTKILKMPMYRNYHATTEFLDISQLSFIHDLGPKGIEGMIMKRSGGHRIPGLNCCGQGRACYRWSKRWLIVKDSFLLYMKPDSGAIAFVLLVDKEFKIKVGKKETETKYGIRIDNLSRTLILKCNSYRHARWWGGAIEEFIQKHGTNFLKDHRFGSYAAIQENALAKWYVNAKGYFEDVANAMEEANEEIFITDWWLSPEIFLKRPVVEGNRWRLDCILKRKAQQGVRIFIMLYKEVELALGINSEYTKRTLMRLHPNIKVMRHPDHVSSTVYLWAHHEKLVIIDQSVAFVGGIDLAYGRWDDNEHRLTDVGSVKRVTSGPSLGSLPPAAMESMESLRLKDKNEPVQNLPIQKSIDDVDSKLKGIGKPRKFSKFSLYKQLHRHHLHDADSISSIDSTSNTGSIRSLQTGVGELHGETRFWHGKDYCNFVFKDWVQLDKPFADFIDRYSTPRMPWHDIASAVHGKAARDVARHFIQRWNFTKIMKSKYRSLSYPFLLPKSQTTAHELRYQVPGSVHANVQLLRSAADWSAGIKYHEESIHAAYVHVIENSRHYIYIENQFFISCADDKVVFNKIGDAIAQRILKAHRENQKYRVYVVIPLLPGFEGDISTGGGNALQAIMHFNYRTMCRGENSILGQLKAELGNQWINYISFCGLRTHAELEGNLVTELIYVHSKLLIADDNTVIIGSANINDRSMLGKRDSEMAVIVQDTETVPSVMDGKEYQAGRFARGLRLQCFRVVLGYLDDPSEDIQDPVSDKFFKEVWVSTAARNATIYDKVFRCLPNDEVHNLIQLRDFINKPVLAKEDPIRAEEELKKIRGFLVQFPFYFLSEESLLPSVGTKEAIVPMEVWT

SMILES	IC50 (full-length human PLD2; [1])	IC50 (full-length human PLD1; [2])	IC50 (full-length human PLD2; [3])	IC50 (full-length human PLD1; [4])
CNC(=O)C(=O)N[C@@H](C)C[C@H]1CC[C@]2(CC1)OC(=O)NN=C2c1ccc(C(C)=O)cc1C [Example 167]	< 10 nM	20 nM	–	–
Cc1cc(F)ccc1C1=NNC(=O)O[C@]12CC[C@@H](C[C@H](C)NC(=O)c1ccc(Cl)cn1)CC2 [Example 89]	37 nM	38 nM	–	–
C[C@@H](CN1CCC2(CC1)OC(=O)NN=C2c1ccc(C#N)cc1Br)NC(=O)c1cnn(C)c1 [Example 336]	< 10 nM	33 nM	–	–
C[C@@H](C[C@H]1CC[C@]2(CC1)OC(=O)NN=C2c1cnc(C2CC2)cc1Cl)NC(=O)N1CCn2nccc2C1 [Example 277]	< 10 nM	17 nM	–	–
C[C@@H](CN1CCC2(CC1)OC(=O)NN=C2c1ccc(F)cc1Br)NC(=O)c1cc2cc(F)ccc2[nH]1 [Example 2]	< 10 nM	20 nM	–	–
CNC(=O)C(=O)N[C@@H](C)CN1CCC2(CC1)OC(=O)NN=C2c1cc(Br)c(F)cc1Cl [Example 2-015]	12 nM	26 nM	–	–
CNC(=O)C(=O)N[C@@H](C)C[C@H]1CC[C@]2(CC1)OC(=O)NN=C2c1cc(Br)ccc1C [Example 212]	< 10 nM	< 10 nM	–	–
CNC(=O)C(=O)N[C@@H](C)C[C@H]1CC[C@]2(CC1)OC(=O)NN=C2c1ccc(F)cc1C(F)(F)F [Example 56]	17 nM	26 nM	–	–
CNC(=O)C(=O)N[C@@H](C)C[C@H]1CC[C@]2(CC1)OC(=O)NN=C2c1cc(OC)ncc1Br [Example 2-074]	< 10 nM	11 nM	–	–
CNC(=O)C(=O)N[C@@H](C)C[C@H]1CC[C@]2(CC1)OC(=O)NN=C2c1ccc(F)cc1C [Example 55]	< 10 nM	15 nM	–	–
CNC(=O)C(=O)N[C@@H](C)CN1CCC2(CC1)OC(=O)NN=C2c1cc(C(C)(C)O)ccc1Br [Example 2-034]	10 nM	31 nM	–	–
C[C@H](O)C(=O)N[C@@H](C)C[C@H]1CC[C@]2(CC1)OC(=O)NN=C2c1ccc(F)cc1Br [Example 29]	1720 nM	999 nM	–	–
Cc1cc(C(=O)N[C@@H](C)C[C@H]2CC[C@]3(CC2)OC(=O)NN=C3c2cnc(N3CC4CCC(C3)O4)cc2C)[nH]n1 [Example 251]	< 10 nM	17 nM	–	–
C[C@@H](C[C@H]1CC[C@]2(CC1)OC(=O)NN=C2c1cc(Cl)ccc1Cl)NC(=O)c1cc2ccccn2n1 [Example 313]	25 nM	23 nM	–	–
CNC(=O)C(=O)N[C@@H](C)C[C@H]1CC[C@]2(CC1)OC(=O)NN=C2c1cc(C(F)(F)F)ncc1Br [Example 2-075]	< 10 nM	16 nM	–	–
CNC(=O)C(=O)N[C@@H](C)[C@@H](C)N1CCC2(CC1)OC(=O)NN=C2c1ccc(F)cc1Br [Example 291]	234 nM	150 nM	–	–
CONC(=O)N[C@@H](C)C[C@H]1CC[C@]2(CC1)OC(=O)NN=C2c1ccc(F)cc1I [Example 208]	224 nM	45 nM	–	–
C[C@@H](C[C@H]1CC[C@]2(CC1)OC(=O)NN=C2c1cc(OC(F)(F)F)ccc1Br)NC(=O)c1cnn(C)c1 [Example 303]	< 10 nM	11 nM	–	–
CCCC(=O)N[C@@H](C)C[C@H]1CC[C@]2(CC1)OC(=O)NN=C2c1ccc(F)cc1Br [Example 42]	261 nM	247 nM	–	–
CNC(=O)C(=O)N[C@@H](C)C[C@H]1CC[C@]2(CC1)OC(=O)NN=C2c1cc(N2CCOCC2)ccc1C [Example 256]	< 10 nM	27 nM	–	–
[2H]C([2H])([C@H](C)NC(=O)c1cnn(C)c1)N1CCC2(CC1)OC(=O)NN=C2c1ccc(F)cc1Br [Example 334]	< 10 nM	26 nM	–	–
[2H]C([2H])([2H])NC(=O)C(=O)N[C@@H](C)C[C@]1(C#N)CC[C@@]2(CC1)OC(=O)NN=C2c1cc(F)c(F)cc1Br [Example 2-140]	–	–	< 10 nM	17 nM
CNC(=O)C(=O)N[C@@H](C)C[C@H]1CC[C@]2(CC1)OC(=O)NN=C2c1ccc(C#N)cc1Cl [Example 175]	15 nM	21 nM	–	–
CNC(=O)C(=O)N[C@@H](C)C[C@H]1CC[C@]2(CC1)OC(=O)NN=C2c1ncccc1C [Example 147]	32 nM	32 nM	–	–
C[C@@H](CN1CCC2(CC1)OC(=O)NN=C2c1ccc(F)cc1Br)NC(=O)N1CCC2(CC2)C1 [Example 284]	40 nM	61 nM	–	–
CNC(=O)C(=O)N[C@@H](C)C[C@H]1CC[C@]2(CC1)OC(=O)NN=C2c1cc(C(=O)N2CC(F)(F)C2)ccc1Br [Example 2-057]	< 10 nM	18 nM	–	–
C[C@@H](C[C@]1(C#N)CC[C@@]2(CC1)OC(=O)NN=C2c1cc(C#N)ccc1Br)NC(=O)c1cc(Cl)no1 [Example 2-068]	< 10 nM	< 10 nM	–	–

SMILES	IC50 (full-length human PLD2; [1])	IC50 (full-length human PLD1; [2])	IC50 (full-length human PLD2; [3])	IC50 (full-length human PLD1; [4])
Cc1ccncc1C1=NNC(=O)O[C@]12CC[C@@H](C[C@H](C)NC(=O)c1cc(Cl)no1)CC2 [Example 113]	13 nM	17 nM	–	–
CNC(=O)C(=O)N[C@@H](C)C[C@H]1CC[C@]2(CC1)OC(=O)NN=C2c1ccc(OC)cc1Br [Example 58]	< 10 nM	14 nM	–	–
C[C@@H](C[C@H]1CC[C@]2(CC1)OC(=O)NN=C2c1ccc(S(C)(=O)=O)cc1)NC(=O)c1cc2cc(F)ccc2[nH]1 [Example 8]	10 nM	30 nM	–	–
C[C@@H](C[C@H]1CC[C@]2(CC1)OC(=O)NN=C2c1ccc(F)cc1I)NC(=O)NC1CC1 [Example 245]	107 nM	40 nM	–	–
Cc1cc(F)ccc1C1=NNC(=O)O[C@]12CC[C@@H](C[C@H](C)NC(=O)N1CC3CCCCC3C1)CC2 (mixture of isomers) [Example 150]	640 nM	880 nM	–	–
Cc1cc(C(=O)N[C@@H](C)[C@@H](C)N2CCC3(CC2)OC(=O)NN=C3c2ccc(F)cc2Br)[nH]n1 [Example 290]	46 nM	122 nM	–	–
C[C@@H](C[C@H]1CC[C@]2(CC1)OC(=O)NN=C2c1ccc(OC(F)(F)F)cc1Br)NC(=O)c1cc(Cl)no1 [Example 81]	< 10 nM	12 nM	–	–
C[C@@H](C[C@]1(C#N)CC[C@@]2(CC1)OC(=O)NN=C2c1cc(C(F)(F)F)ccc1Br)NC(=O)c1cn(C)cn1 [Example 2-079]	10 nM	11 nM	–	–
C[C@@H](C[C@H]1CC[C@]2(CC1)OC(=O)NN=C2c1ccc(F)cc1Br)NC(=O)c1cn(C)nn1 [Example 76]	17 nM	17 nM	–	–
CNC(=O)C(=O)N[C@@H](C)C[C@H]1CC[C@]2(CC1)OC(=O)NN=C2c1ccc(F)cc1Br [Example 14]	< 10 nM	10 nM	–	–
Cc1cc(C(=O)N[C@@H](C)C[C@H]2CC[C@]3(CC2)OC(=O)NN=C3c2cc(C#N)ccc2Br)[nH]n1 [Example 272]	< 10 nM	15 nM	–	–
COc1cc(C)c(C2=NNC(=O)O[C@]23CC[C@@H](C[C@H](C)NC(=O)N2CCc4cccnc4C2)CC3)cn1 [Example 258]	249 nM	186 nM	–	–
CNC(=O)C(=O)N[C@@H](C)CN1CCC2(CC1)OC(=O)NN=C2c1cccc(F)c1Br [Example 2-030]	18 nM	31 nM	–	–
Cc1cccnc1C1=NNC(=O)O[C@]12CC[C@@H](C[C@H](C)NC(=O)c1cc3ccccc3o1)CC2 [Example 149]	< 10 nM	12 nM	–	–
C[C@@H](C[C@H]1CC[C@]2(CC1)OC(=O)NN=C2c1cccc(C#N)c1Br)NC(=O)c1cnn(C)c1 [Example 318]	41 nM	37 nM	–	–
C[C@@H](C[C@H]1CC[C@]2(CC1)OC(=O)NN=C2c1ccc(OC(F)F)cc1Br)NC(=O)c1cc(Cl)n[nH]1 [Example 144]	< 10 nM	11 nM	–	–
[2H]C([2H])([2H])NC(=O)C(=O)N[C@@H](C)C[C@]1(OC)CC[C@@]2(CC1)OC(=O)NN=C2c1ccc(C#N)cc1Br [Example 2-130]	–	–	< 10 nM	32 nM
CNC(=O)C(=O)N[C@@H](C)C[C@H]1CC[C@]2(CC1)OC(=O)NN=C2c1ccc(F)cc1CCC(F)(F)F [Example 135]	33 nM	86 nM	–	–
[2H]C([2H])([2H])NC(=O)C(=O)N[C@@H](C)C[C@]1(C#N)CC[C@@]2(CC1)OC(=O)NN=C2c1cc(F)ccc1Br [Example 2-133]	–	–	< 10 nM	14 nM
Cc1cc(Cl)c(C2=NNC(=O)O[C@]23CC[C@@H](C[C@H](C)NC(=O)N2CCn4nccc4C2)CC3)cn1 [Example 276]	< 10 nM	21 nM	–	–
Cc1cc(C(=O)N[C@@H](C)C[C@H]2CC[C@]3(CC2)OC(=O)NN=C3c2cnc(Cl)cc2N2CCOCC2)[nH]n1 [Example 225]	203 nM	513 nM	–	–
C[C@@H](C[C@H]1CC[C@]2(CC1)OC(=O)NN=C2c1ccc(F)cc1Br)NC(=O)c1ccccc1 [Example 40]	< 10 nM	13 nM	–	–
C[C@@H](C[C@H]1CC[C@]2(CC1)OC(=O)NN=C2c1ccc(F)cc1Br)NC(=O)c1cc2cc(F)ccc2[nH]1 [Example 13]	< 10 nM	36 nM	–	–
C[C@@H](C[C@H]1CC[C@]2(CC1)OC(=O)NN=C2c1ccc(S(C)(=O)=O)cc1Br)NC(=O)c1cc2cc(F)ccc2[nH]1 [Example 32]	< 10 nM	32 nM	–	–
C[C@@H](C[C@H]1CC[C@]2(CC1)OC(=O)NN=C2c1cn(C)nc1I)NC(=O)c1cc(Cl)no1 [Example 2-046]	118 nM	24 nM	–	–
C[C@@H](CN1CCC2(CC1)OC(=O)NN=C2c1ccc(C#N)cc1Br)NC(=O)C(=O)NC1CC1 [Example 2-064]	11 nM	27 nM	–	–
